Measured values published in BigSolDB 2.1.

CC1=C(/C=C/C(C)=C/C=C/C(C)=C/C=C/C=C(C)/C=C/C=C(C)/C=C/C2=C(C)C(=O)CCC2(C)C)C(C)(C)CCC1=O
solubility (mole fraction)
Settings	293.15 K	298.15 K	303.15 K	308.15 K	313.15 K	318.15 K	323.15 K	333.15 K	343.15 K
in acetone	1.95e-05	2.45e-05	3.1e-05	3.72e-05	4.22e-05	4.94e-05	–	–	–
in cyclohexane	1.27e-05	–	1.33e-05	–	1.38e-05	–	1.48e-05	1.71e-05	2.06e-05
in ethanol	4.5e-06	–	5.6e-06	–	6.35e-06	–	7.48e-06	8.72e-06	9.9e-06
in ethyl acetate	2.71e-05	–	3.67e-05	–	5.43e-05	–	8.58e-05	0.000144	0.000256
in methanol	2.61e-06	–	2.93e-06	–	3.27e-06	–	3.77e-06	4.53e-06	–
in toluene	0.000118	–	0.000146	–	0.000171	–	0.00019	0.000202	0.000208
